Laboratory results reported in ChEMBL document CHEMBL4043275, “Design, synthesis and biological evaluation of phthalimide-alkylamine derivatives as balanced multifunctional cholinesterase and monoamine oxidase-B inhibitors for the treatment of Alzheimer's disease” (Bioorg Med Chem Lett, 2017).

Key:
[1] = molecular target: T1, Amine oxidase [flavin-containing] B (Homo sapiens, UniProt P27338); experiment: Inhibition of human recombinant MAO-B expressed in baculovirus infected BTI insect cells using kynuramine as substrate after 30 mins by fluorescence assay; type: cell-based
T1 sequence (P27338 whole entry): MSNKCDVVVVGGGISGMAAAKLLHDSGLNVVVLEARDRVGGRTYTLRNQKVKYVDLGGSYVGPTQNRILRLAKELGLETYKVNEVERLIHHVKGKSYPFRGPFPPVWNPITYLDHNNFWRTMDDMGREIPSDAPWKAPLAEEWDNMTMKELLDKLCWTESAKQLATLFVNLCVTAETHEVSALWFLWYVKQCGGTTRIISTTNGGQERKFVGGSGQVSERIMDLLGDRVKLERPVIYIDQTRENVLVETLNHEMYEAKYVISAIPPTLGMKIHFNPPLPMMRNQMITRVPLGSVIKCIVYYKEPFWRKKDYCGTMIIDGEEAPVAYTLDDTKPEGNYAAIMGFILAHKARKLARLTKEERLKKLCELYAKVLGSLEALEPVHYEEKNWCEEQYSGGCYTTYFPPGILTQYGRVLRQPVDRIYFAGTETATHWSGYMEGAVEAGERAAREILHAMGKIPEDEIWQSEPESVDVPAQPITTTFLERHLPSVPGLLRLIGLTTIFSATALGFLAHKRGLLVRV

[2] = molecular target: Acetylcholinesterase (Electrophorus electricus, UniProt O42275); experiment: Inhibition of electric eel AChE using acetylthiocholine chloride as substrate incubated for 15 mins by Ellman's method
Chain of Acetylcholinesterase (Electrophorus electricus, UniProt O42275) (O42275 whole entry): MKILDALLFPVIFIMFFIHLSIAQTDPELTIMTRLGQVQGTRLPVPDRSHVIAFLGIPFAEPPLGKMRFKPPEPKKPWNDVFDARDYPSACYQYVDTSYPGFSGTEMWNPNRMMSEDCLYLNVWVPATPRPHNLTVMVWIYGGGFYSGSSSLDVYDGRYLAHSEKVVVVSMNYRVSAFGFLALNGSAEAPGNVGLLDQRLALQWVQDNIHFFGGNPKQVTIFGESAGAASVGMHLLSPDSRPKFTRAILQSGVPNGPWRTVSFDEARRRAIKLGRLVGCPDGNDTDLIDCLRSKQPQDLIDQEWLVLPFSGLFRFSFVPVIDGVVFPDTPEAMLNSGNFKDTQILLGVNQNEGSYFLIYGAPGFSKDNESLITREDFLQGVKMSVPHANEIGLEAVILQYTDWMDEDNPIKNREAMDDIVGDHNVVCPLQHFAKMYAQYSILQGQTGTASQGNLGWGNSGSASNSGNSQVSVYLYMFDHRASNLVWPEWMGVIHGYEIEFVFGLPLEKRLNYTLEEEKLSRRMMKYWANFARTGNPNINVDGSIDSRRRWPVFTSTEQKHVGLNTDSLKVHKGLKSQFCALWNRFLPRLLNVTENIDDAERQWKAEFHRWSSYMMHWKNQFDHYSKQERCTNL

[3] = molecular target: T2, Amine oxidase [flavin-containing] A (Homo sapiens, UniProt P21397); experiment: Inhibition of human recombinant MAO-A expressed in baculovirus infected BTI insect cells at 20 uM using kynuramine as substrate after 30 mins by fluorescence assay relative to control; settings: 0.5 h
T2 sequence (P21397 whole entry): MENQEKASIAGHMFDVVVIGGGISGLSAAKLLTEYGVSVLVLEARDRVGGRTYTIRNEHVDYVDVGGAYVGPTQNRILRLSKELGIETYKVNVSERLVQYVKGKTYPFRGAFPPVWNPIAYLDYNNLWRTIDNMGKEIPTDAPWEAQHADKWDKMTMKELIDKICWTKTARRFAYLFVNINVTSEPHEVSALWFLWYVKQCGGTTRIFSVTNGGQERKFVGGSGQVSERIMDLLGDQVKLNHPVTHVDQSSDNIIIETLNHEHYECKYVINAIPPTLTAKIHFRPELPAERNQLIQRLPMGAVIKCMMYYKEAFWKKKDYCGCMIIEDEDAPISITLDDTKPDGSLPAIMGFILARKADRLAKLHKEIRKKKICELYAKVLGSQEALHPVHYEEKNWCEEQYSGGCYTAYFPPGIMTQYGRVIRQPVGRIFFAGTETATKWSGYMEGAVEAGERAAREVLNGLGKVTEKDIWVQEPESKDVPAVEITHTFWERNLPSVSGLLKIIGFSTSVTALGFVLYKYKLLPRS

[4] = molecular target: Butyrylcholinesterase (Rattus norvegicus, UniProt Q9JKC1); experiment: Inhibition of rat serum BChE using butyrylthiocholine chloride as substrate incubated for 15 mins by Ellman's method
Chain of Butyrylcholinesterase (Q9JKC1 whole entry): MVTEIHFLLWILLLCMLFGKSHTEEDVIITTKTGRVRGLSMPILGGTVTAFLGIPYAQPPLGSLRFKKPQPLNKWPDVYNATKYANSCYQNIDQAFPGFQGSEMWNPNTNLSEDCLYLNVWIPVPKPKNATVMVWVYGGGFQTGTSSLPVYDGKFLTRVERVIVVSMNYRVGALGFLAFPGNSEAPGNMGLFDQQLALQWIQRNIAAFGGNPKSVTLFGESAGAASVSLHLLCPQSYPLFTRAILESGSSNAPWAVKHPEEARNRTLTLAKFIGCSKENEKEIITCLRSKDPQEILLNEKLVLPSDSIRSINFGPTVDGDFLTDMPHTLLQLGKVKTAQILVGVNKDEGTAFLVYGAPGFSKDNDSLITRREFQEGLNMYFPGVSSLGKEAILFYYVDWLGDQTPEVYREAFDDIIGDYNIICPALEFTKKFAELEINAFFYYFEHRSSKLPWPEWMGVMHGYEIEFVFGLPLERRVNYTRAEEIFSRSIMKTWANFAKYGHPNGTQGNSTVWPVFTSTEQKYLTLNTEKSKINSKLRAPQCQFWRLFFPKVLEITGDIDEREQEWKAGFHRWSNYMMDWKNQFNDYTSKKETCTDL

[5] = Selectivity index, ratio of IC50 for equine serum BChE to IC50 for electric eel AChE
[6] = molecular target: Cholinesterase (Equus caballus, UniProt P81908); experiment: Inhibition of equine serum BChE using butyrylthiocholine chloride as substrate incubated for 15 mins by Ellman's method
Chain of Cholinesterase (Equus caballus, UniProt P81908) (P81908 whole entry): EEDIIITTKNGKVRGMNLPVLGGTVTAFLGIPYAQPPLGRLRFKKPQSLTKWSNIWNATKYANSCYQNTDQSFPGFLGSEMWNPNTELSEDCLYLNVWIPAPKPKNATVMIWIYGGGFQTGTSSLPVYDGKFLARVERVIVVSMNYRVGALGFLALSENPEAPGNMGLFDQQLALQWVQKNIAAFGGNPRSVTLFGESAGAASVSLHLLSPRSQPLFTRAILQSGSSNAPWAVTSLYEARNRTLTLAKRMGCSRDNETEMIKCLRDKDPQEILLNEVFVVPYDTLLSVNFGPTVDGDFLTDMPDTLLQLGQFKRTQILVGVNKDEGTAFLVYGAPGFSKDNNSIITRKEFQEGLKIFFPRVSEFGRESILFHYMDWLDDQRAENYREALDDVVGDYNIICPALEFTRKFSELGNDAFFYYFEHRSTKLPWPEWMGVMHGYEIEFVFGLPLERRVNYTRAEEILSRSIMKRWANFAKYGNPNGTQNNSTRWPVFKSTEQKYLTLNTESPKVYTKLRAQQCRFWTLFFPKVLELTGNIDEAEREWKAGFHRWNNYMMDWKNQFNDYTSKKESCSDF

[7] = molecular target: T3, Acetylcholinesterase (Rattus norvegicus, UniProt P37136); experiment: Inhibition of rat cortex homogenate AChE using acetylthiocholine chloride as substrate incubated for 15 mins by Ellman's method
T3 sequence (P37136 whole entry): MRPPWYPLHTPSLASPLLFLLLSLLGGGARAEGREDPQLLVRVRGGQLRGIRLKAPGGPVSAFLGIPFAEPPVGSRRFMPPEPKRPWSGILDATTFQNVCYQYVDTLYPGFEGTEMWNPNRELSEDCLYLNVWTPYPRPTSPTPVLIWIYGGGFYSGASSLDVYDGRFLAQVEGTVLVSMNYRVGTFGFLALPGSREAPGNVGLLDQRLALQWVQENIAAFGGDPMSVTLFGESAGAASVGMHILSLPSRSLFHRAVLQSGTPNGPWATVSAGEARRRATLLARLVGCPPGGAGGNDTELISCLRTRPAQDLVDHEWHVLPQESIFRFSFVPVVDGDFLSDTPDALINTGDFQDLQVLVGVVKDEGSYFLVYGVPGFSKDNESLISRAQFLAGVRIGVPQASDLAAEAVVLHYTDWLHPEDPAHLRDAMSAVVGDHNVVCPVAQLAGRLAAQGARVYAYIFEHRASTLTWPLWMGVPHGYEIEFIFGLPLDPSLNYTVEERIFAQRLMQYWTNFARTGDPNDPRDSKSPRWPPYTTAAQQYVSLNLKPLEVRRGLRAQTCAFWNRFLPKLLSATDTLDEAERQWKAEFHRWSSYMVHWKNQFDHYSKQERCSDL

[8] = molecular target: Cholinesterase (Homo sapiens, UniProt P06276); experiment: Inhibition of human serum BChE using butyrylthiocholine chloride as substrate incubated for 15 mins by Ellman's method
Chain of Cholinesterase (Homo sapiens, UniProt P06276) (P06276 whole entry): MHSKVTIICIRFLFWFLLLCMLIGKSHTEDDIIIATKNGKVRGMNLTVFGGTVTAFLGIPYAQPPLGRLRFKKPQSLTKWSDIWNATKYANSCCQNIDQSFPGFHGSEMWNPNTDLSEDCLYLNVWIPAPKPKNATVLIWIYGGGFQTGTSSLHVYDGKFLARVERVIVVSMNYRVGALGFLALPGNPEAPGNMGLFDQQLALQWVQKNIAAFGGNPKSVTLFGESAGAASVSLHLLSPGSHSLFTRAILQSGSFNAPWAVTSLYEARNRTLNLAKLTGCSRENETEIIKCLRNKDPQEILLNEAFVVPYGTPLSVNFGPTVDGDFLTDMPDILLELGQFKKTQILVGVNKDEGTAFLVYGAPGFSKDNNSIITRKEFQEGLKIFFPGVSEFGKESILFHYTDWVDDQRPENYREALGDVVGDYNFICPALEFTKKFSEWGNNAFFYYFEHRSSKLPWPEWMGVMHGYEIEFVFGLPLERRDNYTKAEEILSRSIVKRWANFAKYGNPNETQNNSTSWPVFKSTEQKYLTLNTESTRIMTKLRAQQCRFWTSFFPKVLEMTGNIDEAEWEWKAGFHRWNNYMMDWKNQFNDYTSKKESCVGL

[9] = molecular target: Acetylcholinesterase (Homo sapiens, UniProt P22303); experiment: Inhibition of human erythrocyte AChE using acetylthiocholine chloride as substrate incubated for 15 mins by Ellman's method
Chain of Acetylcholinesterase (Homo sapiens, UniProt P22303) (P22303 whole entry): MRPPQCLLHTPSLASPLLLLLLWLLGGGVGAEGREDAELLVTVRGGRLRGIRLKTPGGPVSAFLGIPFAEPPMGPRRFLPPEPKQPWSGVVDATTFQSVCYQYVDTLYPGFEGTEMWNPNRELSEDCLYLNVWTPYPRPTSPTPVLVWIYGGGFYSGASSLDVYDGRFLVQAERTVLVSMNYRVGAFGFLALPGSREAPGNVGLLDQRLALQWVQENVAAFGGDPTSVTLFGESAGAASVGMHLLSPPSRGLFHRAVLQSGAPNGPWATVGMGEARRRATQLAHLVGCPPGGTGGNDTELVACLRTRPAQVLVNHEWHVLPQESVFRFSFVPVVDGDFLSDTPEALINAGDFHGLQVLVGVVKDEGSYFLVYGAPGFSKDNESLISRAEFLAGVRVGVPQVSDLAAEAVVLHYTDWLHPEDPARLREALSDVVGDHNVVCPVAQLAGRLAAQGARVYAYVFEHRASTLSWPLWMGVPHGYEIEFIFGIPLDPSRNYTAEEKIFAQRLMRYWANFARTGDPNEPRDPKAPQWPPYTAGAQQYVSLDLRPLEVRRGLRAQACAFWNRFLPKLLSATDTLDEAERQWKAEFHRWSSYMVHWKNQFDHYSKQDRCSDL

Compound	IC50 [1]	IC50 [2]	inhibition at 20 µM [3]	IC50 [4]	Ratio IC50 [5]	IC50 [6]	IC50 [7]	IC50 [8]	IC50 [9]
CN(CCCN1C(=O)c2ccccc2C1=O)Cc1ccccc1	6.1 µM	8.2 µM	< 5%	22.8 µM	2.8	22.9 µM	12.8 µM		
CCN(CCN1C(=O)c2ccccc2C1=O)Cc1ccccc1OC	6.9 µM	3.6 µM	< 5%	15.9 µM	5.1	18.3 µM	0.9 µM		
COc1ccccc1CN(C)CCCCN1C(=O)c2ccccc2C1=O	11.6 µM	1.3 µM	< 5%	9.1 µM	6.1	7.9 µM	3.7 µM		
CCN(CCCCN1C(=O)c2ccccc2C1=O)Cc1ccccc1	6.9 µM	0.43 µM	< 5%	13.3 µM	22.8	9.8 µM	0.6 µM	15.3 µM	0.68 µM
C#CCN(CCCCCN1C(=O)c2ccccc2C1=O)Cc1ccccc1	5.9 µM	3.4 µM	< 5%	58.5 µM	4.1	13.9 µM	10.4 µM		
COc1ccccc1CN(C)CCCCCCN1C(=O)c2ccccc2C1=O	11.3 µM	1.1 µM	< 5%	42.9 µM	27.8	30.6 µM	0.6 µM		
CC(C)N1CCN(CCCCN2C(=O)c3ccccc3C2=O)CC1	8.9 µM	5.3 µM	< 5%	17.9 µM	4.4	23.4 µM	3.9 µM		
COc1ccccc1CN(C)CCN1C(=O)c2ccccc2C1=O	8.4 µM	6.2 µM	< 5%	14.8 µM	1.9	11.9 µM	13.9 µM		
CC(C)N1CCN(CCCCCCN2C(=O)c3ccccc3C2=O)CC1	13.1 µM	8.8 µM	< 5%	27.9 µM	2.2	19.4 µM	6.3 µM		
C#CCN(CCCCCN1C(=O)c2ccccc2C1=O)Cc1ccccc1OC	6.3 µM	9.6 µM	< 5%	44.4 µM	2.7	26.3 µM	14 µM		
CCN(CCCN1C(=O)c2ccccc2C1=O)Cc1ccccc1	6.9 µM	3.3 µM	< 5%	13.2 µM	2.8	9.3 µM	1.1 µM		
C#CCN(CCCCN1C(=O)c2ccccc2C1=O)Cc1ccccc1OC	5.6 µM	3.4 µM	< 5%	39 µM	2.4	8.3 µM	5.1 µM		
C#CCN[C@@H]1CCc2ccccc21 [RASAGILINE]								4.76 µM	0.019 µM
C#CCN(CCCCCCN1C(=O)c2ccccc2C1=O)Cc1ccccc1OC	9.1 µM	4.9 µM	< 5%	22.5 µM	2.7	13.4 µM	4.3 µM		
CCN(CCCCCCN1C(=O)c2ccccc2C1=O)Cc1ccccc1OC	11.7 µM	0.38 µM	< 5%	14.9 µM	19.2	7.3 µM	0.33 µM	8.9 µM	0.59 µM
CCN(CCCCCCN1C(=O)c2ccccc2C1=O)Cc1ccccc1	12.2 µM	1 µM	< 5%	18.1 µM	11	11 µM	3.4 µM	15.8 µM	3.7 µM
C#CCN(CCCCCCN1C(=O)c2ccccc2C1=O)Cc1ccccc1	8.2 µM	6.8 µM	< 5%	16.2 µM	1.1	7.6 µM	7.6 µM		
C#CCN(CCCN1C(=O)c2ccccc2C1=O)Cc1ccccc1OC	7.6 µM	13.5 µM	< 5%	5.3 µM	0.43	5.8 µM	4.1 µM		
CN(CCN1C(=O)c2ccccc2C1=O)Cc1ccccc1	7.3 µM	15.9 µM	< 5%	26.2 µM	1.4	22.5 µM	16 µM		
COc1ccccc1CN(C)CCCN1C(=O)c2ccccc2C1=O	9.8 µM	4.6 µM	< 5%	27.7 µM	0.8	3.7 µM	9.8 µM		
CCN(CCN1C(=O)c2ccccc2C1=O)Cc1ccccc1	8.3 µM	9.3 µM	< 5%	16.1 µM	2.4	21.9 µM	13.2 µM		
CC(C)N1CCN(CCCCCN2C(=O)c3ccccc3C2=O)CC1	12.6 µM	7.9 µM	< 5%	16.3 µM	4.4	34.5 µM	5.4 µM		
C#CCN(CCCCN1C(=O)c2ccccc2C1=O)Cc1ccccc1	6.5 µM	4.9 µM	< 5%	32.4 µM	2.6	12.7 µM	4 µM		
CN(CCCCN1C(=O)c2ccccc2C1=O)Cc1ccccc1	4.2 µM	2.6 µM	< 5%	8.4 µM	5.6	14.5 µM	4.3 µM		
CN(CCCCCCN1C(=O)c2ccccc2C1=O)Cc1ccccc1	8.3 µM	2.1 µM	< 5%	20.7 µM	8.5	17.9 µM	3.9 µM		
CC(C)N1CCN(CCCN2C(=O)c3ccccc3C2=O)CC1	10.4 µM	12.9 µM	< 5%	32.9 µM	2.7	34.9 µM	8.3 µM		
CCN(CCCN1C(=O)c2ccccc2C1=O)Cc1ccccc1OC	4.7 µM	0.9 µM	< 5%	9.4 µM	12.6	11.3 µM	0.4 µM	14.6 µM	4.5 µM
CCN(CCCCN1C(=O)c2ccccc2C1=O)Cc1ccccc1OC	9.4 µM	0.13 µM	< 5%	18.9 µM	238	31 µM	0.04 µM	12.9 µM	0.28 µM
